Tests used:
Assay in all cases: cells
COLO-829 = format: functional, cell-based, Homo sapiens; settings: Homo sapiens, COLO-829
Description: SANGER: Inhibition of human COLO-829 cell growth in a cell viability assay.

DB = format: functional, cell-based, Homo sapiens; settings: Homo sapiens, DB
Description: SANGER: Inhibition of human DB cell growth in a cell viability assay.

DEL = format: functional, cell-based, Homo sapiens; settings: Homo sapiens, DEL
Description: SANGER: Inhibition of human DEL cell growth in a cell viability assay.

DMS-114 = format: functional, cell-based, Homo sapiens; settings: Homo sapiens, DMS-114
DOHH-2 = format: functional, cell-based, Homo sapiens; settings: Homo sapiens, DOHH-2
Description: SANGER: Inhibition of human DOHH-2 cell growth in a cell viability assay.

ES3 = format: functional, cell-based, Homo sapiens; settings: Homo sapiens, ES3
Description: SANGER: Inhibition of human ES3 cell growth in a cell viability assay.

ES4 = format: functional, cell-based, Homo sapiens; settings: Homo sapiens, ES4
Description: SANGER: Inhibition of human ES4 cell growth in a cell viability assay.

ES7 = format: functional, cell-based, Homo sapiens; settings: Homo sapiens, ES7
Description: SANGER: Inhibition of human ES7 cell growth in a cell viability assay.

EW-16 = format: functional, cell-based, Homo sapiens; settings: Homo sapiens, EW-16
Description: SANGER: Inhibition of human EW-16 cell growth in a cell viability assay.

HCC2218 = format: functional, cell-based, Homo sapiens; settings: Homo sapiens, HCC2218
Description: SANGER: Inhibition of human HCC2218 cell growth in a cell viability assay.

HEL = format: functional, cell-based, Homo sapiens; settings: Homo sapiens, HEL
Description: SANGER: Inhibition of human HEL cell growth in a cell viability assay.

HH = format: functional, cell-based, Homo sapiens; settings: Homo sapiens, HH
Description: SANGER: Inhibition of human HH cell growth in a cell viability assay.

IST-MES1 = format: functional, cell-based, Homo sapiens; settings: Homo sapiens, IST-MES1
Description: SANGER: Inhibition of human IST-MES1 cell growth in a cell viability assay.

JAR = format: functional, cell-based, Homo sapiens; settings: Homo sapiens, JAR
Description: SANGER: Inhibition of human JAR cell growth in a cell viability assay.

K562 = format: functional, cell-based, Homo sapiens; settings: Homo sapiens, K562
Description: SANGER: Inhibition of human K-562 cell growth in a cell viability assay.

K5 = format: functional, cell-based, Homo sapiens; settings: Homo sapiens, K5
Description: SANGER: Inhibition of human K5 cell growth in a cell viability assay.

KE-37 = format: functional, cell-based, Homo sapiens; settings: Homo sapiens, KE-37
Description: SANGER: Inhibition of human KE-37 cell growth in a cell viability assay.

KG-1 = format: functional, cell-based, Homo sapiens; settings: Homo sapiens, KG-1
Description: SANGER: Inhibition of human KG-1 cell growth in a cell viability assay.

KGN = format: functional, cell-based, Homo sapiens; settings: Homo sapiens, KGN
Description: SANGER: Inhibition of human KGN cell growth in a cell viability assay.

KM12 = format: functional, cell-based, Homo sapiens; settings: Homo sapiens, KM12
Description: SANGER: Inhibition of human KM12 cell growth in a cell viability assay.

KY821 = format: functional, cell-based, Homo sapiens; settings: Homo sapiens, KY821
Description: SANGER: Inhibition of human KY821 cell growth in a cell viability assay.

KYSE-270 = format: functional, cell-based; settings: Homo sapiens
Description: SANGER: Inhibition of human KYSE-270 cell growth in a cell viability assay.

LAMA-84 = format: functional, cell-based, Homo sapiens; settings: Homo sapiens, LAMA-84
Description: SANGER: Inhibition of human LAMA-84 cell growth in a cell viability assay.

LAN-6 = format: functional, cell-based, Homo sapiens; settings: Homo sapiens, LAN-6
Description: SANGER: Inhibition of human LAN-6 cell growth in a cell viability assay.

LB831-BLC = format: functional, cell-based, Homo sapiens; settings: Homo sapiens, LB831-BLC
Description: SANGER: Inhibition of human LB831-BLC cell growth in a cell viability assay.

LC-2-ad = format: functional, cell-based, Homo sapiens; settings: Homo sapiens, LC-2-ad
Description: SANGER: Inhibition of human LC-2-ad cell growth in a cell viability assay.

LOX IMVI = format: functional, cell-based, Homo sapiens; settings: Homo sapiens, LOX IMVI
Description: SANGER: Inhibition of human LOXIMVI cell growth in a cell viability assay.

LU-134-A = format: functional, cell-based, Homo sapiens; settings: Homo sapiens, LU-134-A
Description: SANGER: Inhibition of human LU-134-A cell growth in a cell viability assay.

LU-139 = format: functional, cell-based, Homo sapiens; settings: Homo sapiens, LU-139
Description: SANGER: Inhibition of human LU-139 cell growth in a cell viability assay.

MEG-01 = format: functional, cell-based, Homo sapiens; settings: Homo sapiens, MEG-01
Description: SANGER: Inhibition of human MEG-01 cell growth in a cell viability assay.

MSTO-211H = format: functional, cell-based, Homo sapiens; settings: Homo sapiens, MSTO-211H
Description: SANGER: Inhibition of human MSTO-211H cell growth in a cell viability assay.

MZ2-MEL = format: functional, cell-based, Homo sapiens; settings: Homo sapiens, MZ2-MEL
Description: SANGER: Inhibition of human MZ2-MEL cell growth in a cell viability assay.

Mo = format: functional, cell-based, Homo sapiens; settings: Homo sapiens, Mo
Description: SANGER: Inhibition of human Mo-T cell growth in a cell viability assay.

NB69 = format: functional, cell-based, Homo sapiens; settings: Homo sapiens, NB69
Description: SANGER: Inhibition of human NB69 cell growth in a cell viability assay.

NCI-H1963 = format: functional, cell-based, Homo sapiens; settings: Homo sapiens, NCI-H1963
Description: SANGER: Inhibition of human NCI-H1963 cell growth in a cell viability assay.

NOS-1 = format: functional, cell-based, Homo sapiens; settings: Homo sapiens, NOS-1
Description: SANGER: Inhibition of human NOS-1 cell growth in a cell viability assay.

NTERA-2-cl-D1 = format: functional, cell-based, Homo sapiens; settings: Homo sapiens, NTERA-2-cl-D1
Description: SANGER: Inhibition of human NTERA-S-cl-D1 cell growth in a cell viability assay.

P30-OHK = format: functional, cell-based, Homo sapiens; settings: Homo sapiens, P30-OHK
Description: SANGER: Inhibition of human P30-OHK cell growth in a cell viability assay.

RCC10RGB = format: functional, cell-based, Homo sapiens; settings: Homo sapiens, RCC10RGB
Description: SANGER: Inhibition of human RCC10RGB cell growth in a cell viability assay.

RS4-11 = format: functional, cell-based, Homo sapiens; settings: Homo sapiens, RS4-11
Description: SANGER: Inhibition of human RS4-11 cell growth in a cell viability assay.

SHP77 = format: functional, cell-based, Homo sapiens, SHP-77; settings: Homo sapiens, SHP77
Description: SANGER: Inhibition of human SHP-77 cell growth in a cell viability assay.

SK-MEL-2 = format: functional, cell-based, Homo sapiens; settings: Homo sapiens, SK-MEL-2
Description: SANGER: Inhibition of human SK-MEL-2 cell growth in a cell viability assay.

BB49-HNC = format: functional, cell-based, Homo sapiens; settings: Homo sapiens, BB49-HNC
Description: SANGER: Inhibition of human BB49-HNC cell growth in a cell viability assay.

BB65-RCC = format: functional, cell-based, Homo sapiens; settings: Homo sapiens, BB65-RCC
Description: SANGER: Inhibition of human BB65-RCC cell growth in a cell viability assay.

C8166 = format: functional, cell-based, Homo sapiens; settings: Homo sapiens, C8166
Description: SANGER: Inhibition of human C8166 cell growth in a cell viability assay.

TE-10 = format: functional, cell-based, Homo sapiens; settings: Homo sapiens, TE-10
Description: SANGER: Inhibition of human TE-10 cell growth in a cell viability assay.

TE-8 = format: functional, cell-based, Homo sapiens; settings: Homo sapiens, TE-8
Description: SANGER: Inhibition of human TE-8 cell growth in a cell viability assay.

TGBC24TKB = format: functional, cell-based; settings: Homo sapiens
Description: SANGER: Inhibition of human TGBC24TKB cell growth in a cell viability assay.

VA-ES-BJ = format: functional, cell-based, Homo sapiens; settings: Homo sapiens, VA-ES-BJ
Description: SANGER: Inhibition of human VA-ES-BJ cell growth in a cell viability assay.

CGTH-W-1 = format: functional, cell-based, Homo sapiens; settings: Homo sapiens, CGTH-W-1
Description: SANGER: Inhibition of human CGTH-W-1 cell growth in a cell viability assay.

## CCCCCCCCCCCC1=C(O)C(=O)C=C(O)C1=O [EMBELIN]
COLO-829
  IC50: 5.29 µM
DB
  IC50: > 32 µM
DEL
  IC50: 10.4 µM
DMS-114
  IC50: > 32 µM
DOHH-2
  IC50: 7.57 µM
ES3
  IC50: 15.4 µM
ES4
  IC50: 4.52 µM
ES7
  IC50: 6.6 µM
EW-16
  IC50: 4.27 µM
HCC2218
  IC50: 13 µM
HEL
  IC50: 11.2 µM
HH
  IC50: > 32 µM
IST-MES1
  IC50: > 32 µM
JAR
  IC50: > 32 µM
K562
  IC50: 31.7 µM
K5
  IC50: > 32 µM
KE-37
  IC50: 3.44 µM
KG-1
  IC50: > 32 µM
KGN
  IC50: 3.22 µM
KM12
  IC50: 13.5 µM
KY821
  IC50: > 32 µM
KYSE-270
  IC50: 8.86 µM
LAMA-84
  IC50: 18.5 µM
LAN-6
  IC50: > 32 µM
LB831-BLC
  IC50: 12.6 µM
LC-2-ad
  IC50: 12.9 µM
LOX IMVI
  IC50: 17.5 µM
LU-134-A
  IC50: > 32 µM
LU-139
  IC50: > 32 µM
MEG-01
  IC50: 25.5 µM
MSTO-211H
  IC50: > 32 µM
MZ2-MEL
  IC50: 6.33 µM
Mo
  IC50: > 32 µM
NB69
  IC50: > 32 µM
NCI-H1963
  IC50: > 32 µM
NOS-1
  IC50: 4.67 µM
NTERA-2-cl-D1
  IC50: 1.6 µM
P30-OHK
  IC50: 6.13 µM
RCC10RGB
  IC50: > 32 µM
RS4-11
  IC50: 10.5 µM
SHP77
  IC50: > 32 µM
SK-MEL-2
  IC50: 11.7 µM
BB49-HNC
  IC50: > 32 µM
BB65-RCC
  IC50: 11.4 µM
C8166
  IC50: 7.64 µM
TE-10
  IC50: 13.3 µM
TE-8
  IC50: 11 µM
TGBC24TKB
  IC50: 26.5 µM
VA-ES-BJ
  IC50: 10.7 µM
CGTH-W-1
  IC50: 16.8 µM

## OC[C@H](Cc1ccccc1)Nc1nc(Oc2ccc3c(c2)CCC3)nc2c1ncn2Cc1ccc(-c2ccccc2)cc1
COLO-829
  IC50: > 10.2 µM
DB
  IC50: 6.68 µM
DEL
  IC50: > 10.2 µM
DMS-114
  IC50: > 10.2 µM
DOHH-2
  IC50: > 10.2 µM
ES3
  IC50: 6.65 µM
ES4
  IC50: 8.51 µM
ES7
  IC50: > 10.2 µM
EW-16
  IC50: 8.29 µM
HCC2218
  IC50: > 10.2 µM
HEL
  IC50: 3.28 µM
HH
  IC50: > 10.2 µM
IST-MES1
  IC50: > 10.2 µM
JAR
  IC50: > 10.2 µM
K562
  IC50: > 10.2 µM
K5
  IC50: > 10.2 µM
KE-37
  IC50: 9.31 µM
KG-1
  IC50: > 10.2 µM
KGN
  IC50: > 10.2 µM
KM12
  IC50: > 10.2 µM
KY821
  IC50: > 10.2 µM
KYSE-270
  IC50: 1.76 µM
LAMA-84
  IC50: > 10.2 µM
LAN-6
  IC50: > 10.2 µM
LB831-BLC
  IC50: > 10.2 µM
LC-2-ad
  IC50: 8.53 µM
LOX IMVI
  IC50: > 10.2 µM
LU-134-A
  IC50: > 10.2 µM
LU-139
  IC50: > 10.2 µM
MEG-01
  IC50: 4.6 µM
MSTO-211H
  IC50: > 10.2 µM
MZ2-MEL
  IC50: 4.42 µM
Mo
  IC50: > 10.2 µM
NB69
  IC50: > 10.2 µM
NCI-H1963
  IC50: > 10.2 µM
NOS-1
  IC50: > 10.2 µM
NTERA-2-cl-D1
  IC50: > 10.2 µM
P30-OHK
  IC50: 3.56 µM
RCC10RGB
  IC50: > 10.2 µM
RS4-11
  IC50: > 10.2 µM
SHP77
  IC50: > 10.2 µM
SK-MEL-2
  IC50: > 10.2 µM
BB49-HNC
  IC50: > 10.2 µM
BB65-RCC
  IC50: 7.84 µM
C8166
  IC50: > 10.2 µM
TE-10
  IC50: 7.51 µM
TE-8
  IC50: 3.17 µM
TGBC24TKB
  IC50: > 10.2 µM
VA-ES-BJ
  IC50: 2.57 µM
CGTH-W-1
  IC50: > 10.2 µM
